Here are results for 25 molecules from patent US20230167127A1, “COMPOUNDS AND THEIR USE IN THE TREATMENT OF BACTERIAL INFECTION” (Hoffmann-La Roche Inc., priority 2020, published 2023).

Structures can show the parent of a compound that is named as a salt. Where two headings read alike, the source gives them in different places.

The subject of this test is Escherichia coli ATCC 25922. Put plainly: 50% growth inhibitory concentration (IC50) determination, Iso-Sensitest broth dilution. In kind it is cell-based. The settings on record: strain Escherichia coli ATCC 25922, 10-point broth dilution, optical density at 600 nm over 16 h, read-out: Escherichia coli growth inhibition IC50. A digest of the protocol:
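10-point twofold Iso-Sensitest broth dilution (e.g. 50 to 0.097 μM final) with DMSO stocks, incubated at 35±2° C. Growth followed by OD 600 nm every 20 min over 16 h; IC50 derived from growth inhibition during logarithmic phase.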
For orientation: Broth dilution looks for growth in wells or tubes with falling amounts of substance.

[1] abbreviates: Escherichia coli, ATCC25922, 16 h.

Turning to `NC1c2cccc(Cl)c2CC1CNCCC1CN(c2ccc3c(n2)NC(=O)CS3)C(=O)O1` (racemic) [Example 246, 5-[2-[(rac-1,2-trans-1-amino-4-chloro-2,3-dihydro-1H-inden-2-yl)methylamino]ethyl]-3-(3-oxo-4H-pyrido[3,2-b][1,4]thiazin-6-yl)-1,3-oxazolidin-2-one], the IC50 under setting [1] is < 97.7 nM.

Consider `Cc1ccnc2c1CC(NCCCC1CN(c3ccc4c(n3)NC(=O)CO4)C(=O)O1)C2` (stereo not shown) [Example 27, 6-[5-[3-[(4-methyl-6,7-dihydro-5H-cyclopenta[b]pyridin-6-yl)amino]propyl]-2-oxo-1,3-oxazolidin-3-yl]-4H-pyrido[3,2-b][1,4]oxazin-3-one], for which, under setting [1], the 50% inhibitory concentration (IC50) amounted to 582 nM.

As to `O=C1COc2ncc(N3CC(CCNCC4Cc5cc(OC6CNC6)cc(F)c5C4)OC3=O)nc2N1` (stereo not shown) [Example 358, 6-[5-[2-[[6-(azetidin-3-yloxy)-4-fluoro-2,3-dihydro-1H-inden-2-yl]methylamino]ethyl]-2-oxo-1,3-oxazolidin-3-yl]-4H-pyrazino[2,3-b][1,4]oxazin-3-one; hydrochloride], the 50% inhibitory concentration (IC50) under setting [1] is < 97.7 nM.

On to `C[C@H](N)COc1cc(F)c2c(c1)CC(CN1CCC3(CC1)CN(c1cnc4c(n1)NC(=O)CO4)C(=O)O3)C2` (stereo partly drawn) [Example 356, 6-[8-[[6-[(2S)-2-aminopropoxy]-4-fluoro-2,3-dihydro-1H-inden-2-yl]methyl]-2-oxo-1-oxa-3,8-diazaspiro[4.5]decan-3-yl]-4H-pyrazino[2,3-b][1,4]oxazin-3-one; formic acid], for which the IC50 under setting [1] was < 97.7 nM.

For the molecule `N#Cc1cccc2c1CC(CNCCc1nn(-c3ccc4c(c3)NC(=O)CO4)c(=O)o1)C2` (stereo not shown) [Example 42, 2-[[2-[5-oxo-4-(3-oxo-4H-1,4-benzoxazin-6-yl)-1,3,4-oxadiazol-2-yl]ethylamino]methyl]-2,3-dihydro-1H-indene-4-carbonitrile; formic acid], the half-maximal inhibitory concentration (IC50) under setting [1] is 158 nM.

With `Cn1ccc(COc2cc(C#N)c3c(c2)CC(CNCCC2CN(c4cnc5c(n4)NC(=O)CO5)C(=O)O2)C3)n1` (stereo not shown) [Example 388, 6-[(1-methylpyrazol-3-yl)methoxy]-2-[[2-[2-oxo-3-(3-oxo-4H-pyrazino[2,3-b][1,4]oxazin-6-yl)-1,3-oxazolidin-5-yl]ethylamino]methyl]-2,3-dihydro-1H-indene-4-carbonitrile], under setting [1], the half-maximal inhibitory concentration (IC50) was 192 nM.

Consider `N#Cc1cc(OCC2(N)CC2)cc2c1CC(CCN1CC3(C1)CN(c1ccc4c(n1)NC(=O)CO4)C(=O)O3)C2` (stereo not shown) [Example 197, 6-((1-aminocyclopropyl)methoxy)-2-(2-(6-oxo-7-(3-oxo-3,4-dihydro-2H-pyrido[3,2-b][1,4]oxazin-6-yl)-5-oxa-2,7-diazaspiro[3.4]octan-2-yl)ethyl)-2,3-dihydro-1H-indene-4-carbonitrile], for which the half-maximal inhibitory concentration (IC50) under setting [1] is < 97.7 nM.

On to `N#Cc1cccc2c1CC(CN1CCC3(CC1)CN(c1cnc4c(n1)NC(=O)CO4)C(=O)O3)C2` (stereo not shown) [Example 261, 2-[[2-Oxo-3-(3-oxo-4H-pyrazino[2,3-b][1,4]oxazin-6-yl)-1-oxa-3,8-diazaspiro[4.5]decan-8-yl]methyl]-2,3-dihydro-1H-indene-4-carbonitrile; formic acid], for which the half-maximal inhibitory concentration (IC50) under setting [1] is < 97.7 nM.

On to `NC1c2cccc(Cl)c2CC1NCCCC1CN(c2cnc3c(n2)NC(=O)CO3)C(=O)O1` (racemic) [Example 245, 6-[2-oxo-5-[3-[[rac-1,2-trans-1-amino-4-chloro-2,3-dihydro-1H-inden-2-yl]amino]propyl]-1,3-oxazolidin-3-yl]-4H-pyrazino[2,3-b][1,4]oxazin-3-one], for which, under setting [1], the IC50 was found to be 119 nM.

For `Cc1ncc(F)c2c1CC(NCC(O)CC1CN(c3cnc4c(n3)NC(=O)CO4)C(=O)O1)C2` (single isomer, unassigned; isomer b) [Example 314, 6-[2-Oxo-5-[3-[(4-fluoro-1-methyl-6,7-dihydro-5H-cyclopenta[c]pyridin-6-yl)amino]-2-hydroxypropyl]-1,3-oxazolidin-3-yl]-4H-pyrazino[2,3-b][1,4]oxazin-3-one; formic acid, Isomer B], the half-maximal inhibitory concentration (IC50) was 1180 nM.

On to `CC(N)COc1cc(F)c2c(c1)CC(CNCCC1CN(c3ccc4c(n3)NC(=O)CO4)C(=O)O1)C2` (stereo not shown) [Example 154, 6-[5-[2-[[6-(2-aminopropoxy)-4-fluoro-2,3-dihydro-1H-inden-2-yl]methylamino]ethyl]-2-oxo-1,3-oxazolidin-3-yl]-4H-pyrido[3,2-b][1,4]oxazin-3-one], for which, under setting [1], the IC50 is < 97.7 nM.

Take `O=C1COc2ccc(N3CC(CCCNC4Cc5ccccc5C4)OC3=O)nc2N1` (stereo not shown) [Example 9, 6-[5-[3-(2,3-dihydro-1H-inden-2-ylamino)propyl]-2-oxo-1,3-oxazolidin-3-yl]-4H-pyrido[3,2-b][1,4]oxazin-3-one; formic acid]: the IC50 under setting [1] turned out to be 439 nM.

Regarding `NCCOc1ccc2c(c1Cl)CC(CNCCC1CN(c3ccc4c(n3)NC(=O)CO4)C(=O)O1)C2` (stereo not shown) [Example 116, 6-[5-[2-[[5-(2-Aminoethoxy)-4-chloro-2,3-dihydro-1H-inden-2-yl]methylamino]ethyl]-2-oxo-1,3-oxazolidin-3-yl]-4H-pyrido[3,2-b][1,4]oxazin-3-one], the 50% inhibitory concentration (IC50) under setting [1] is < 97.7 nM.

For the molecule `NC1c2ccnc(Cl)c2CC1CNCCC1CN(c2ccc3c(n2)NC(=O)CO3)C(=O)O1` (racemic) [Example 146, 6-[2-oxo-5-[2-[[rac-5,6-cis-5-amino-1-chloro-6,7-dihydro-5H-cyclopenta[c]pyridin-6-yl]methylamino]ethyl]-1,3-oxazolidin-3-yl]-4H-pyrido[3,2-b][1,4]oxazin-3-one; formic acid], the half-inhibitory concentration (IC50) under setting [1] came to 1010 nM.

`COCC(N)COc1cc(F)c2c(c1)CC(CNCCC1CN(c3ccc4c(n3)NC(=O)CO4)C(=O)O1)C2` (stereo not shown) [Example 248, 6-[5-[2-[[6-(2-amino-3-methoxypropoxy)-4-fluoro-2,3-dihydro-1H-inden-2-yl]methylamino]ethyl]-2-oxo-1,3-oxazolidin-3-yl]-4H-pyrido[3,2-b][1,4]oxazin-3-one]: the IC50 under setting [1] is < 97.7 nM.

With `Cc1ncc(F)c2c1CC(CNCCC1CN(c3cnc4c(n3)NC(=O)CO4)C(=O)O1)C2` (stereo not shown) [Example 51, 6-[5-[2-[(4-fluoro-1-methyl-6,7-dihydro-5H-cyclopenta[c]pyridin-6-yl)methylamino]ethyl]-2-oxo-1,3-oxazolidin-3-yl]-4H-pyrazino[2,3-b][1,4]oxazin-3-one], the 50% inhibitory concentration (IC50) under setting [1] is < 97.7 nM.

On to `N#Cc1cccc2c1CC(CNCCC1CN(c3ncc4c(n3)NC(=O)CO4)C(=O)O1)C2` (stereo not shown) [Example 289, 2-[[2-[2-oxo-3-(7-oxo-8H-pyrimido [5,4-b] [1,4]oxazin-2-yl)-1,3-oxazolidin-5-yl]ethylamino]methyl]-2,3-dihydro-1H-indene-4-carbonitrile], for which the IC50 under setting [1] is < 97.7 nM.

For the molecule `NC1c2cccc(Cl)c2CC1CNCCC1CN(c2ccc3c(n2)NC(=O)CO3)C(=O)O1` (single isomer, unassigned; isomer a) [Example 207, 6-[2-Oxo-5-[2-[[1,2-trans-1-amino-4-chloro-2,3-dihydro-1H-inden-2-yl]methylamino]ethyl]-1,3-oxazolidin-3-yl]-4H-pyrido[3,2-b][1,4]oxazin-3-one, Isomer A], the IC50 under setting [1] was < 97.7 nM.

`N[C@@H]1c2cccc(Cl)c2C[C@H]1CN1CCC2(CC1)CN(c1cnc3c(n1)NC(=O)CO3)C(=O)O2` (racemic) [Example 259, 6-[2-Oxo-8-[[rac-1,2-trans-1-amino-4-chloro-2,3-dihydro-1H-inden-2-yl]methyl]-1-oxa-3,8-diazaspiro[4.5]decan-3-yl]-4H-pyrazino[2,3-b][1,4]oxazin-3-one; formic acid]: the IC50 under setting [1] was < 97.7 nM.

For `CNC(=O)COc1ccc2c(c1C#N)CC(CNCCC1CN(c3ccc4c(n3)NC(=O)CO4)C(=O)O1)C2` (stereo not shown) [Example 48, 2-[[4-cyano-2-[[2-[2-oxo-3-(3-oxo-4H-pyrido[3,2-b][1,4]oxazin-6-yl)-1,3-oxazolidin-5-yl]ethylamino]methyl]-2,3-dihydro-1H-inden-5-yl]oxy]-N-methylacetamide], the IC50 under setting [1] was 106 nM.

For the molecule `COc1cnc(Cl)c2c1CC(CNCCC1CN(c3cnc4c(n3)NC(=O)CO4)C(=O)O1)C2` (stereo not shown) [Example 58, 6-[5-[2-[(1-chloro-4-methoxy-6,7-dihydro-5H-cyclopenta[c]pyridin-6-yl)methylamino]ethyl]-2-oxo-1,3-oxazolidin-3-yl]-4H-pyrazino[2,3-b][1,4]oxazin-3-one; formic acid], the 50% inhibitory concentration (IC50) under setting [1] came to 190 nM.

As to `O=C1COc2ncc(N3CC(CCNCC4Cc5cc(OCc6cc[nH]n6)cc(F)c5C4)OC3=O)nc2N1` (stereo not shown) [Example 320, 6-[5-[2-[[4-Fluoro-6-(1H-pyrazol-3-ylmethoxy)-2,3-dihydro-1H-inden-2-yl]methylamino]ethyl]-2-oxo-1,3-oxazolidin-3-yl]-4H-pyrazino[2,3-b][1,4]oxazin-3-one; formic acid], under setting [1], the IC50 is 202 nM.

Take `Cc1nonc1COc1cc(C#N)c2c(c1)CC(CNCCC1CN(c3cnc4c(n3)NC(=O)CO4)C(=O)O1)C2` (stereo not shown) [Example 392, 6-[(4-methyl-1,2,5-oxadiazol-3-yl)methoxy]-2-[[2-[2-oxo-3-(3-oxo-4H-pyrazino[2,3-b][1,4]oxazin-6-yl)-1,3-oxazolidin-5-yl]ethylamino]methyl]-2,3-dihydro-1H-indene-4-carbonitrile]: the half-maximal inhibitory concentration (IC50) under setting [1] is < 97.7 nM.

In the case of `N#Cc1cccc2c1CC(CNCCC1CN(c3cnc4c(n3)NC(=O)CO4)C(=O)O1)C2` (stereo not shown) [Example 35, 2-[[2-[2-oxo-3-(3-oxo-4H-pyrazino[2,3-b][1,4]oxazin-6-yl)-1,3-oxazolidin-5-yl]ethylamino]methyl]-2,3-dihydro-1H-indene-4-carbonitrile], the IC50 under setting [1] was < 97.7 nM.

For the molecule `O=C1COc2ccc(N3CC(NCCNC4Cc5cccc(F)c5C4)CC3=O)nc2N1` (stereo not shown) [Example 120, 6-[4-[2-[(4-fluoro-2,3-dihydro-1H-inden-2-yl)amino]ethylamino]-2-oxopyrrolidin-1-yl]-4H-pyrido[3,2-b][1,4]oxazin-3-one; formic acid], under setting [1], the 50% inhibitory concentration (IC50) amounted to 440 nM.

By IC50 is commonly meant the midpoint of a concentration-inhibition curve.
